Measured values as given in ChEMBL document CHEMBL5729785, “Pyridazinones as PARP7 inhibtors” (2023).

Biological target: T1, Protein mono-ADP-ribosyltransferase TIPARP (Homo sapiens, UniProt Q7Z3E1)
T1 sequence (Q7Z3E1 whole entry): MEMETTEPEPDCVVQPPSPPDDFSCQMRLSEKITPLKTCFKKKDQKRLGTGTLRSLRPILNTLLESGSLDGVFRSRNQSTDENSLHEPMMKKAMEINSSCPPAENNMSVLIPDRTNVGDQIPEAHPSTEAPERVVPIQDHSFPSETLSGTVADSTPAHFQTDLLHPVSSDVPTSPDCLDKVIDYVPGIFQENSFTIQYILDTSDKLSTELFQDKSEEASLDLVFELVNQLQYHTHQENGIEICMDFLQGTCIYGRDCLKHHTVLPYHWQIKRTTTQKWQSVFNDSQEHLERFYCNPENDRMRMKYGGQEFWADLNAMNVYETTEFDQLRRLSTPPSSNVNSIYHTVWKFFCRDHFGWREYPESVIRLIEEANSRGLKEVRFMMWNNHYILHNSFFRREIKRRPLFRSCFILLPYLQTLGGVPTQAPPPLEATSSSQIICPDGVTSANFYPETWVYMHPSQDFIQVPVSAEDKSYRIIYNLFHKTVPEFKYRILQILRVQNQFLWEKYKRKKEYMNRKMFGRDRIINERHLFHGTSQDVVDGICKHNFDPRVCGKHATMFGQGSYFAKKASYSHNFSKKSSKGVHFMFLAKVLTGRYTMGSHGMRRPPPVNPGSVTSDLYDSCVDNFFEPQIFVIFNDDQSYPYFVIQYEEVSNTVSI
Experiment: Enzymatic Assay: Displacement of Probe A, a biotinylated probe binding to the TIPARP active site, was measured using a time-resolved fluorescence energy transfer (TR-FRET) assay. 20 nL of a dose response curve of each test compound was spotted in black 384-well polystyrene proxiplates (Perkin Elmer) using a Mosquito (TTP Labtech). Reactions were performed in a 8 μl volume by adding 6 μL of TIPARP and Probe A in assay buffer (20 mM HEPES pH=8, 100 mM NaCl, 0.1% bovine serum albumin, 2 mM DTT and 0.002% Tween20), incubating with test compound at 25° C. for 30 min, then adding 2 μL of ULight-anti 6×His and LANCE Eu-W1024 labeled streptavidin (Perkin Elmer). The final concentrations of TIPARP and Probe A were 6 nM and 2 nM, respectively. The final concentration of ULight-anti 6×His and LANCE Eu-W1024 labeled streptavidin were 4 nM and 0.25 nM, respectively. Reactions were incubated at 25° C. for an additional 30 min, then read on an Envision platereader equipped with a LANCE/DELFIA top mirror (Perkin Elmer) using excitation of 320 nm and emission of 615 nm and 665 nM with a […]. The ratio of the 665/615 nm emission were calculated for each well to determine the amount of complex of TIPARP and Probe Ain each well. […]

- IC50: < 100 nM
SMILES: C[C@@H](CO[C@@H]1CCN(C2CCN(c3ncc(Br)cn3)CC2)C1=O)Nc1cn[nH]c(=O)c1C(F)(F)F
